Data reported in paper PMC12586182 (Frontiers in Oncology, 2025).

What was measured:
Assay in all cases: Kinase panel profiling at 1 µmol/L (mobility shift assay, Carna)
Format in all cases: biochemical
Details in all cases: 1 µmol/L of BTK inhibitor
EPHA7 = target: T1, EPHA7 (Homo sapiens, UniProt Q15375)
T1 construct: purchased Carna Biosciences

EPHA3 = target: T2, EPHA3 (Homo sapiens, UniProt P29320)
T2 construct: purchased Carna Biosciences
T2 sequence (P29320 21-983): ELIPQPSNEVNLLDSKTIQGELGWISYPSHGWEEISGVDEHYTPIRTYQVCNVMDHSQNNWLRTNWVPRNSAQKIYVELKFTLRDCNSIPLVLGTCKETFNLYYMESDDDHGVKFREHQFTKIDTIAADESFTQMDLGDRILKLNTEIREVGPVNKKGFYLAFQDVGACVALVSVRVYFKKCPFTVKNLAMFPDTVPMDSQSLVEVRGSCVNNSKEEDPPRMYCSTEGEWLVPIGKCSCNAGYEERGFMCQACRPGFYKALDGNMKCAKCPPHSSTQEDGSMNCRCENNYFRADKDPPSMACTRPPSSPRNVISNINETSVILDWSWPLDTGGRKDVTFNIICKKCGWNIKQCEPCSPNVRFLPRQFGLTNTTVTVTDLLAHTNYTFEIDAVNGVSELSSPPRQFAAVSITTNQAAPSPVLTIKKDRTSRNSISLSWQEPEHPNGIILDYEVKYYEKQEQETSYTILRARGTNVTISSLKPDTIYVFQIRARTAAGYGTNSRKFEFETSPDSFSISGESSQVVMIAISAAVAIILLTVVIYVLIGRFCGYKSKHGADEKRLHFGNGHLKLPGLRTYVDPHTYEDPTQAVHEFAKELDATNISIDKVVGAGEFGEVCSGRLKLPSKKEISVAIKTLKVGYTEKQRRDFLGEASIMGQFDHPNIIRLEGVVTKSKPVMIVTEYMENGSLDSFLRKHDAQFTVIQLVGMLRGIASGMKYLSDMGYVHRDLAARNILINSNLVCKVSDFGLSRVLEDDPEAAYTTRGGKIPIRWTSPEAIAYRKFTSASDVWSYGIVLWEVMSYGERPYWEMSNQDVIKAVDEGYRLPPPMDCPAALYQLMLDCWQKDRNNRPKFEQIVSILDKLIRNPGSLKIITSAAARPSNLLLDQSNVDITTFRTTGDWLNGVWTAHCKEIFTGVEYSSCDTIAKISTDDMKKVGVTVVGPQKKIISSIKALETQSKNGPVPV

MUSK = target: T3, MUSK (Homo sapiens, UniProt O15146)
T3 construct: purchased Carna Biosciences
T3 sequence (O15146 24-869): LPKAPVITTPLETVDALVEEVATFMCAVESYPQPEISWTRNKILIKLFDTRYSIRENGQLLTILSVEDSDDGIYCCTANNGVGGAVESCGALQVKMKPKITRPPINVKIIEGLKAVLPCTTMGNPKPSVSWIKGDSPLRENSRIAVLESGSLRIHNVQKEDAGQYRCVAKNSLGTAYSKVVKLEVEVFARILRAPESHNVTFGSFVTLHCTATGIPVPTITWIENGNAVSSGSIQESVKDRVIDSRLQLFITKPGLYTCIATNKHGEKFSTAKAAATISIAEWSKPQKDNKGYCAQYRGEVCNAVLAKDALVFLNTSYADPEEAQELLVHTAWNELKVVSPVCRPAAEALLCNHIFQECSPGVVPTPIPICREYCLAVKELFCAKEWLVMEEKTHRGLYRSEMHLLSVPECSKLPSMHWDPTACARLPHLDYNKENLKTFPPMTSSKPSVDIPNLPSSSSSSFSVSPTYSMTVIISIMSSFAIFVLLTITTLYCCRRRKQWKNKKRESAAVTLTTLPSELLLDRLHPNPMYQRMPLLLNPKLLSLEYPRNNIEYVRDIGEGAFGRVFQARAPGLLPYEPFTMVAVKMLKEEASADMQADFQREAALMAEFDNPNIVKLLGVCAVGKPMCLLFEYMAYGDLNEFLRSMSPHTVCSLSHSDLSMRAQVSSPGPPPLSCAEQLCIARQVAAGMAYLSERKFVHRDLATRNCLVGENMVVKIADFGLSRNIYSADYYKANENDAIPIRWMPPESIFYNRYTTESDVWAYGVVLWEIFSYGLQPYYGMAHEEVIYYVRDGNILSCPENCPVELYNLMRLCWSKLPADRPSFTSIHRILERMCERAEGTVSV

PKCε = target: T4, PKCε (Homo sapiens, UniProt Q02156)
T4 construct: purchased Carna Biosciences
T4 sequence (Q02156 1-737): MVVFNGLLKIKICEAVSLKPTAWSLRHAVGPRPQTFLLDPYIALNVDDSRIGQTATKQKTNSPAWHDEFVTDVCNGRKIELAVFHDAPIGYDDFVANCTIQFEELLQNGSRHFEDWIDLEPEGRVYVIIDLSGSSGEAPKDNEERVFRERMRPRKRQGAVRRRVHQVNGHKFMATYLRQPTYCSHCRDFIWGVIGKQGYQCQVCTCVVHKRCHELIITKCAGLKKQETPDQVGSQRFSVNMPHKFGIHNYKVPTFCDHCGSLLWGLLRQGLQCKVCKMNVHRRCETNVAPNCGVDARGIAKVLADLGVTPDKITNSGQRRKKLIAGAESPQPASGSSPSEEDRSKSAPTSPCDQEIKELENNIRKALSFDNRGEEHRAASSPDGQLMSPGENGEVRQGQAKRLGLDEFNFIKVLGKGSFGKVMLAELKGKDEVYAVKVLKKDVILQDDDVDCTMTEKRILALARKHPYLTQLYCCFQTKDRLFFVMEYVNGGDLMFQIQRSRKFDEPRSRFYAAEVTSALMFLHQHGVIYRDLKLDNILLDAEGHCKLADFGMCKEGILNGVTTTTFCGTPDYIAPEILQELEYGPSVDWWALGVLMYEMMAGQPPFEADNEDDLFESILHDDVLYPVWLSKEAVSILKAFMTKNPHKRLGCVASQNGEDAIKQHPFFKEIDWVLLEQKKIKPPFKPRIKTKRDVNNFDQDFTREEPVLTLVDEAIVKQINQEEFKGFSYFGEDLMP

TYK2 = target: T5, TYK2 (Homo sapiens, UniProt P29597)
T5 construct: purchased Carna Biosciences
T5 sequence (P29597 whole entry): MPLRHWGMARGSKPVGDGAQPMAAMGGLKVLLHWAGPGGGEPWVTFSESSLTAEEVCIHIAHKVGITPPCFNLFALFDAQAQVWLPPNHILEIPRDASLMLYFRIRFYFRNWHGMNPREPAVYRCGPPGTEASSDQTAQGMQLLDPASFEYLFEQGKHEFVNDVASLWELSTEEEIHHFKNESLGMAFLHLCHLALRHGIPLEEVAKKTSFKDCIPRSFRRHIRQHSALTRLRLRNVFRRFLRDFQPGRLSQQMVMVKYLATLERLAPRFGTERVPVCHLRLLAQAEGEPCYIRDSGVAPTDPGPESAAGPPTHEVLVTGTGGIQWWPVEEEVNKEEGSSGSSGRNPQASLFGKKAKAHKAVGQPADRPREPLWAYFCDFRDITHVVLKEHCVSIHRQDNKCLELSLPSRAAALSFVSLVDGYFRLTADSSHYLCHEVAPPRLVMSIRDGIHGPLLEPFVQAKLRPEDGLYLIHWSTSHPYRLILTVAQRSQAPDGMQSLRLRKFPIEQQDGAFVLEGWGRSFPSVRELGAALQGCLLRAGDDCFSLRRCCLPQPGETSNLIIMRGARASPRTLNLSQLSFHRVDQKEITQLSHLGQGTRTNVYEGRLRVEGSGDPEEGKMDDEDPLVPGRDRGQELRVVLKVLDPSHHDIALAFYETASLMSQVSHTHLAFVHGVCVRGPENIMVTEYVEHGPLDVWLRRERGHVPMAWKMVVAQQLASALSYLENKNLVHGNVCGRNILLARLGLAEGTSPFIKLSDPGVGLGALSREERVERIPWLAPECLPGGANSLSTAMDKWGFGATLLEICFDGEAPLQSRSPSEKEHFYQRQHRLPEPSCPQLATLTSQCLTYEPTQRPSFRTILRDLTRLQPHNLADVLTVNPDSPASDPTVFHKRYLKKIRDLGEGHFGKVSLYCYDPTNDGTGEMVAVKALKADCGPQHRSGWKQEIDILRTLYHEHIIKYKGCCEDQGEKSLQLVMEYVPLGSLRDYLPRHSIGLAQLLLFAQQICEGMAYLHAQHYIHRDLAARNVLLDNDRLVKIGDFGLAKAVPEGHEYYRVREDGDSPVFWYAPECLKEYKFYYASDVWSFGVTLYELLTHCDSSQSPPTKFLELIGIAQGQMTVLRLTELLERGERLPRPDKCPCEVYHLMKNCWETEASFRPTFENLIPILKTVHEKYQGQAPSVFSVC

ROCK2 = target: T6, ROCK2 (Homo sapiens, UniProt O75116)
T6 construct: purchased Carna Biosciences
T6 sequence (O75116 whole entry): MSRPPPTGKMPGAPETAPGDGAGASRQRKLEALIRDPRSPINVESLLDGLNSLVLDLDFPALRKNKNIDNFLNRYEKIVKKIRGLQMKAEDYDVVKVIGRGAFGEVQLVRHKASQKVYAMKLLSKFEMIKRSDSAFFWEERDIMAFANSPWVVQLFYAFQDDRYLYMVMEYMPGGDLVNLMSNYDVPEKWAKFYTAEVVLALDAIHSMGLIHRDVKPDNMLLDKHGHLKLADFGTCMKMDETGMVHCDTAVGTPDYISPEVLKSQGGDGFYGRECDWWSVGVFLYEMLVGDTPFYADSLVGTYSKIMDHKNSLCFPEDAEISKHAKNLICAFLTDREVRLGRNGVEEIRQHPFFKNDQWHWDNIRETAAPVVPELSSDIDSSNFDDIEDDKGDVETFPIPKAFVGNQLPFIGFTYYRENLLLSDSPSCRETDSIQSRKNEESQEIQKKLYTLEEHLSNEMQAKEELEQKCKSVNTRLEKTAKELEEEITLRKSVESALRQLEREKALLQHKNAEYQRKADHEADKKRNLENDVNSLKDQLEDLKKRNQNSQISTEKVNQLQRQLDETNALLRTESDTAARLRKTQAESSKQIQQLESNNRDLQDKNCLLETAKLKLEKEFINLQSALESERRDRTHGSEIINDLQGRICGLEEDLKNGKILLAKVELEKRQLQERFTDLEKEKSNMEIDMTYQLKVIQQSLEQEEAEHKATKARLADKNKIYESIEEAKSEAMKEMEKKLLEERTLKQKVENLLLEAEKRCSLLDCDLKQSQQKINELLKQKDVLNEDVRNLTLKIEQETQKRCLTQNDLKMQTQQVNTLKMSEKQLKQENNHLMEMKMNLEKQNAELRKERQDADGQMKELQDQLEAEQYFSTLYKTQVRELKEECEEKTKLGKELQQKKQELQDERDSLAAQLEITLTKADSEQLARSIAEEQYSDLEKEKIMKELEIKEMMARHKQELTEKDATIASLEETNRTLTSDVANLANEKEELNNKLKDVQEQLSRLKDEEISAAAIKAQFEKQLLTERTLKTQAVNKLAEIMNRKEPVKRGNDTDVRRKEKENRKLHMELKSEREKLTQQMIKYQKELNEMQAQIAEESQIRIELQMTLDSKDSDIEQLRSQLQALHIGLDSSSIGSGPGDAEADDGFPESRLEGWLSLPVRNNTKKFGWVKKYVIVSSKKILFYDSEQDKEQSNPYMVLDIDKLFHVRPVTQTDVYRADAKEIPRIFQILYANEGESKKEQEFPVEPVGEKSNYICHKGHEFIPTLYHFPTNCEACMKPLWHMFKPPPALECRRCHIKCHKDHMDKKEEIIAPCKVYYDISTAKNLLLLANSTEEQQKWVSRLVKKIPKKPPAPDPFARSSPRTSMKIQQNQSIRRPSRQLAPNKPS

MST4 = target: T7, MST4 (Homo sapiens, UniProt Q9P289)
T7 construct: purchased Carna Biosciences
T7 sequence (Q9P289 whole entry): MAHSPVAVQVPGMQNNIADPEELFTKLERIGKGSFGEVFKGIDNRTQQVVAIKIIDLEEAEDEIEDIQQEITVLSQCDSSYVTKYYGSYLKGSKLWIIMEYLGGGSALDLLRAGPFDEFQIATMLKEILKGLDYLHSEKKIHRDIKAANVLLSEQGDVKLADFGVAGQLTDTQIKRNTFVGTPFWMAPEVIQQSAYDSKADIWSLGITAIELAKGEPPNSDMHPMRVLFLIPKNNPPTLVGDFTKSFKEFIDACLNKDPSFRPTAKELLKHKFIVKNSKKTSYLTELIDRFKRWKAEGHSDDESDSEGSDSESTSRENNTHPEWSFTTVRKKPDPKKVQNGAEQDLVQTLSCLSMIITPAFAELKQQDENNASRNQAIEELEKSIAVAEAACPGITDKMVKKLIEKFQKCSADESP

TIE2 = target: T8, TIE2 (Homo sapiens, UniProt Q02763)
T8 construct: purchased Carna Biosciences
T8 sequence (Q02763 23-1124): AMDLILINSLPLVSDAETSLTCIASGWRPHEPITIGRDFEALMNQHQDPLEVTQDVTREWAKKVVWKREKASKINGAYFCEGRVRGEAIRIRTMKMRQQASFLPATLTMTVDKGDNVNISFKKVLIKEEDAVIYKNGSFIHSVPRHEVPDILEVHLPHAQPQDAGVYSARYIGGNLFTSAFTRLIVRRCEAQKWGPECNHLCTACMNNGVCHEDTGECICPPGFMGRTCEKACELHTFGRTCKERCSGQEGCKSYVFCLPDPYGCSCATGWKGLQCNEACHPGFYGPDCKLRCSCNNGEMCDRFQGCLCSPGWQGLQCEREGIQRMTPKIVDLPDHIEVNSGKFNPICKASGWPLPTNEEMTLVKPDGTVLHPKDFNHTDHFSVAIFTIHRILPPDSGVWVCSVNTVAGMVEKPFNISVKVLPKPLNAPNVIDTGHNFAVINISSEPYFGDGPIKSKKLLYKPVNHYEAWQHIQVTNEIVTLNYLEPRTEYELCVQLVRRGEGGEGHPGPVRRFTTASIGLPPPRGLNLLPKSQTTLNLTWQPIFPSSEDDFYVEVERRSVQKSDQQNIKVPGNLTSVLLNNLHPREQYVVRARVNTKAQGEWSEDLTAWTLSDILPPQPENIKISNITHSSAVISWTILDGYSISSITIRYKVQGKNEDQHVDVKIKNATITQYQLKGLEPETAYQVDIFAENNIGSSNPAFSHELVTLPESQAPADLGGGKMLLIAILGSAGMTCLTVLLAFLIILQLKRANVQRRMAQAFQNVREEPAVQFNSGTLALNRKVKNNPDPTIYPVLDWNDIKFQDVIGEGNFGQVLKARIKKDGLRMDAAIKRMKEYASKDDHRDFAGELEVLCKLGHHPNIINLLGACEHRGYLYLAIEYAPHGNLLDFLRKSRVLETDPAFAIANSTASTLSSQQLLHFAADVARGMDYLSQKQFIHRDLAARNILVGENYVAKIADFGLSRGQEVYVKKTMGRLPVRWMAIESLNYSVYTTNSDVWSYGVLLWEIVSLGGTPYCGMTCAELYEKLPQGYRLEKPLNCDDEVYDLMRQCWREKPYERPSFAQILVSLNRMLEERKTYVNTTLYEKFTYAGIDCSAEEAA

T1 sequence (Q15375 28-998): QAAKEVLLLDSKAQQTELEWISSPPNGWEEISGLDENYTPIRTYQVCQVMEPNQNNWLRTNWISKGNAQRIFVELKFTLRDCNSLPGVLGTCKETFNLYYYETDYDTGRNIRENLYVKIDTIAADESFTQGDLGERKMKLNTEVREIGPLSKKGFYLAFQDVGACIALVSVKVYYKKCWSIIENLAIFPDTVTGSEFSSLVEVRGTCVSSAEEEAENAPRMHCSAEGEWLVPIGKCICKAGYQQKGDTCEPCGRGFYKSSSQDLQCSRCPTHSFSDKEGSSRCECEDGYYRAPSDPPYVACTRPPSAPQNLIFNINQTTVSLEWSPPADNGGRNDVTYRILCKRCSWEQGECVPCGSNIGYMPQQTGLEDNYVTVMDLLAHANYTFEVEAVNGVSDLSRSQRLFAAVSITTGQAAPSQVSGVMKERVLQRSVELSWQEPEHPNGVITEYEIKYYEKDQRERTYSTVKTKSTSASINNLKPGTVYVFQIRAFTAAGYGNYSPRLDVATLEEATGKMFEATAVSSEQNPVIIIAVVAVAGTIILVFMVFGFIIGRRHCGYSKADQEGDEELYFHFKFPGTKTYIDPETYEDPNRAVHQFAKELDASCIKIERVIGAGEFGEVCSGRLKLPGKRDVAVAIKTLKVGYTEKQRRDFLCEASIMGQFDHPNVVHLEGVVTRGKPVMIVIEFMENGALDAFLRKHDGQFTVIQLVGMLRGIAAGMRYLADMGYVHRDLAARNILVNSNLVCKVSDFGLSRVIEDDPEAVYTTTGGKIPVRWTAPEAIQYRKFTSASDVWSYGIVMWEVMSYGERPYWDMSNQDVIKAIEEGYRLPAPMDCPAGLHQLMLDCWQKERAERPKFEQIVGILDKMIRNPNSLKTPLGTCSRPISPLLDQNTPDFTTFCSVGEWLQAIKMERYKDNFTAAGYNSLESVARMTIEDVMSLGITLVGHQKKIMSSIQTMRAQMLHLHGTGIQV

## C=CC(=O)N1CCC([C@@H]2CCNc3c(C(N)=O)c(-c4ccc(Oc5ccccc5)cc4)nn32)CC1 [zanubrutinib]
EPHA7
  Percentage inhibition of kinase enzyme activity: -7.84%
EPHA3
  Percentage inhibition of kinase enzyme activity: -0.20%
MUSK
  Percentage inhibition of kinase enzyme activity: 11.33%

## CC#CC(=O)N1CCC[C@H]1c1nc(-c2ccc(C(=O)Nc3ccccn3)cc2)c2c(N)nccn12 [acalabrutinib]
PKCε
  Percentage inhibition of kinase enzyme activity: -8.62%
TYK2
  Percentage inhibition of kinase enzyme activity: 12.80%
ROCK2
  Percentage inhibition of kinase enzyme activity: -2.29%
EPHA7
  Percentage inhibition of kinase enzyme activity: -3.54%
MST4
  Percentage inhibition of kinase enzyme activity: -6.42%
TIE2
  Percentage inhibition of kinase enzyme activity: -5.36%
EPHA3
  Percentage inhibition of kinase enzyme activity: -2.07%
MUSK
  Percentage inhibition of kinase enzyme activity: -0.58%

## COc1ccc(F)cc1C(=O)NCc1ccc(-c2nn([C@@H](C)C(F)(F)F)c(N)c2C(N)=O)cc1 [pirtobrutinib]
PKCε
  Percentage inhibition of kinase enzyme activity: 18.12%
TYK2
  Percentage inhibition of kinase enzyme activity: -2.78%
ROCK2
  Percentage inhibition of kinase enzyme activity: 1.18%
EPHA7
  Percentage inhibition of kinase enzyme activity: -9.86%
MST4
  Percentage inhibition of kinase enzyme activity: -7.97%
TIE2
  Percentage inhibition of kinase enzyme activity: -3.49%
EPHA3
  Percentage inhibition of kinase enzyme activity: -5.46%
MUSK
  Percentage inhibition of kinase enzyme activity: 1.20%

## O=C(c1ccc(Oc2ccccc2)cc1Cl)c1c[nH]c2ncnc(N[C@@H]3CC[C@@H](CO)OC3)c12 [nemtabrutinib]
PKCε
  Percentage inhibition of kinase enzyme activity: 12.58%
TYK2
  Percentage inhibition of kinase enzyme activity: 10.79%
ROCK2
  Percentage inhibition of kinase enzyme activity: 15.55%
EPHA7
  Percentage inhibition of kinase enzyme activity: 94.05%
MST4
  Percentage inhibition of kinase enzyme activity: 57.51%
TIE2
  Percentage inhibition of kinase enzyme activity: 99.74%
EPHA3
  Percentage inhibition of kinase enzyme activity: 50.57%
MUSK
  Percentage inhibition of kinase enzyme activity: 100.11%

## C=CC(=O)N1CCC[C@@H](n2nc(-c3ccc(Oc4ccccc4)cc3)c3c(N)ncnc32)C1 [ibrutinib]
PKCε
  Percentage inhibition of kinase enzyme activity: 7.63%
TYK2
  Percentage inhibition of kinase enzyme activity: 6.93%
ROCK2
  Percentage inhibition of kinase enzyme activity: 3.74%
EPHA7
  Percentage inhibition of kinase enzyme activity: 6.99%
MST4
  Percentage inhibition of kinase enzyme activity: 1.46%
TIE2
  Percentage inhibition of kinase enzyme activity: 29.04%
EPHA3
  Percentage inhibition of kinase enzyme activity: 3.80%
MUSK
  Percentage inhibition of kinase enzyme activity: 1.76%
